Source: US10472612B2, “Cell culture system” (PRESIDENT AND FELLOWS OF HARVARD COLLEGE, priority 2011, dated 2019)

How the values were obtained:
[1] = test system: Caco-2 cell monolayer alone or with HMVE cell monolayer; experiment: Molecular permeability through cell monolayer in gut-on-a-chip with or without mechanical strain (Example 1); assay type: in vitro ADME, human; details: Caco-2 monolayer alone or with HMVE monolayer; cyclic stretching 0.15 Hz, 30 μL/h
Protocol: In a fluidic condition (N=4), constant perfusion flow of 30 μL/h was conducted without any stretching motions (i.e. shear stresses only). […] In a static condition (N=4), transport experiment was performed in a Transwell system. Error bars indicate standard errors.
In a fluidic condition (N=2), constant perfusion flow at 30 μL/h was conducted without any stretching motions (i.e. shear stresses only). […] In a static condition (N=4), transport experiments were performed in the Transwell system. Error bars indicate standard errors.
In a fluidic condition (N=5), constant perfusion flow of 30 μL/h was conducted without any stretching motions (i.e. shear stresses only). […] In a static condition (N=3), transport experiment was performed in a Transwell system. Error bars indicate standard errors.
After the cell monolayers were fully confluent and stabilized under defined fluidic conditions, transport experiments were conducted. […] The co-cultured monolayers of Caco-2 and HMVE cells experienced with cyclic deformations for 12 hours or more prior to initiating the transport or barrier functional analysis experiments. […] Electrical resistances between the top and the bottom microchannels were monitored using an Ag/AgCl electrode equipped with an Ohm meter, and the resistance was converted into TEER value by multiplying values by the surface area of the cell monolayer. […]

[2] = test system: Caco-2 cell monolayer; assay type: cell-based; details: flow 40 μL/hr, cyclic strain 10%, 0.15 Hz
Protocol: Epithelial Barrier Measurements. The integrity of the human intestinal epithelial cell monolayer resulting from establishment of apical tight junctions was evaluated by staining for the tight junctional protein, occluidin,^29 using confocal immunofluorescence microscopy and by measuring trans-epithelial electrical resistance (TEER). In Transwell cultures, TEER was measured using a Millicell ERS meter (Millipore, Bedford, Mass.) coupled to a chopstick-like electrode, and TEER values (Ω cm^2) were determined by subtracting the baseline resistance value measured in the absence of cells and then multiplying the remaining ‘specific’ resistance value (Ω) times the cell culture surface area (cm^2). […] Again, the baseline resistance value measured in the absence of cells was subtracted from results obtained with the Caco-2 monolayer, and specific TEER values were determined by multiplying the specific resistance times the total cell culture surface area on the PDMS membrane (Table 1).

[3] = test system: Caco-2 cell monolayer; experiment: LGG co-culture on Caco-2 monolayer in static Transwell; assay type: cell-based, human; details: first day of co-culture, not measurable after 48 hours
Protocol: Epithelial Barrier Measurements. The integrity of the human intestinal epithelial cell monolayer resulting from establishment of apical tight junctions was evaluated by staining for the tight junctional protein, occluidin,^29 using confocal immunofluorescence microscopy and by measuring trans-epithelial electrical resistance (TEER). In Transwell cultures, TEER was measured using a Millicell ERS meter (Millipore, Bedford, Mass.) coupled to a chopstick-like electrode, and TEER values (Ω cm^2) were determined by subtracting the baseline resistance value measured in the absence of cells and then multiplying the remaining ‘specific’ resistance value (Ω) times the cell culture surface area (cm^2). The TEER of the Caco-2 monolayer cultured in the Gut-on-a-Chip was measured using a voltage-ohm meter (87V Industrial Multimeter, Fluke Corporation, Everett, Wash.) coupled to Ag/AgCl electrode wires (0.008″ in diameter; A-M systems, Inc., Sequim, Wash.); control studies confirmed that similar TEER results were obtained with both methods. Again, the baseline resistance value measured in the absence of cells was subtracted from results obtained with the Caco-2 monolayer, and specific TEER values were determined by multiplying the specific resistance times the total cell culture surface area on the PDMS membrane (Table 1).
Microbial Studies. […]

Row | Substance | effect of mechanical strain on paracellular transport [1] | barrier integrity (TEER) during co-culture [2] | TEER during co-culture [3]
1 | Lucifer yellow | increased |  | 
2 | Lactobacillus rhamnosus GG [LGG] |  | improved | dissipated
